Experimental data as given in patent US11814444B2, “Cyclic polypeptides for PCSK9 inhibition” (Ra Pharmaceuticals, Inc., priority 2018, dated 2023).
Numbered stars: 1 amine (or outer) side, 2 acyl side, 3 side chain; on linkers, the order of the positions; unused ones are H or OH. Bridge positions count the residues as written; N and C are the ends. Square brackets hold non-standard residues; d marks the D form. Peptide text beside a SMILES is read from it. X3 = O=C([C@@H]1C[C@@H](SCc2ccc(C[*:3])cc2)CN1[*:1])[*:2]; X2 = O=C([C@@H]1C[C@@H](SC/C=C/C[*:3])CN1[*:1])[*:2]; Trp(5-F) = N[C@@H](Cc1c[nH]c2ccc(F)cc12)C(=O)O; Trp(7-aza) = N[C@@H](Cc1c[nH]c2ncccc12)C(=O)O; Pro(cis-4-F) = O=C(O)[C@@H]1C[C@H](F)CN1; X1 = C[C@@](N[*:1])(C(=O)[*:2])c1ccccc1; Phe(4-F) = N[C@@H](Cc1ccc(F)cc1)C(=O)O; 1Nal = N[C@@H](Cc1cccc2ccccc12)C(=O)O; mXylylene = c1cc(C[*:1])cc(C[*:2])c1; Ala(cPr) = N[C@@H](CC1CC1)C(=O)O; Hyp = O=C(O)[C@@H]1C[C@@H](O)CN1; NH(CH2)5NH = C(CCN[*:1])CCN[*:2]; Aad = N[C@@H](CCCC(=O)O)C(=O)O; Chg = N[C@H](C(=O)O)C1CCCCC1; Pen = CC(C)(S)[C@H](N)C(=O)O; Tle = CC(C)(C)[C@H](N)C(=O)O; αMeV = CC(C)[C@](C)(N)C(=O)O; S5 = C=CCCC[C@](C)(N)C(=O)O; NMeS = CN[C@@H](CO)C(=O)O; Nva = CCC[C@H](N)C(=O)O; Thp = NC1(C(=O)O)CCOCC1; Ac4c = NC1(C(=O)O)CCC1; X4 = C(CC[*:2])C[*:1]; Aib = CC(C)(N)C(=O)O; Mpa = O=C(O)CCS

Legend:
Format in all cases: binding
[1] = biological target: human PCSK9 / human LDLR EGFa domain interaction (Homo sapiens, UniProt Q8NBP7); test: TR-FRET assay of inhibition of the PCSK9-LDLR protein-protein interaction; details: 20 nM avitag-biotinylated human PCSK9, 20 nM his-tagged human LDLR EGFa domain, 2 hours, room temperature
human PCSK9 / human LDLR EGFa domain interaction, sequence (Q8NBP7 153-692): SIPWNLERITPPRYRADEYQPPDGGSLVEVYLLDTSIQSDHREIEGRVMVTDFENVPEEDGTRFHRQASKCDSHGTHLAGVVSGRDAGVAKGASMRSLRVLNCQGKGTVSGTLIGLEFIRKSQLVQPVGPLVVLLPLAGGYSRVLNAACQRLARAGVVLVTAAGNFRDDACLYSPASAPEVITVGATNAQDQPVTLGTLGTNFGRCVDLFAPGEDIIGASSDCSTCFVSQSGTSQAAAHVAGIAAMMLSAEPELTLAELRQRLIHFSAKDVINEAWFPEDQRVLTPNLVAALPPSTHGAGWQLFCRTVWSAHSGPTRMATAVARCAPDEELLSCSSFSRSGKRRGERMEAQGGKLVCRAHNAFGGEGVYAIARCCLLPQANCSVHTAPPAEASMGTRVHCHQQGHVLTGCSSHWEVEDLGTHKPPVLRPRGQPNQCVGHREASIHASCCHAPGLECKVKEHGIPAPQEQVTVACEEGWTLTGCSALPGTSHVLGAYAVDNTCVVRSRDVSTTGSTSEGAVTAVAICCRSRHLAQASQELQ
human PCSK9 / human LDLR EGFa domain interaction, sequence (Q8NBP7 31-152 partner limits assumed): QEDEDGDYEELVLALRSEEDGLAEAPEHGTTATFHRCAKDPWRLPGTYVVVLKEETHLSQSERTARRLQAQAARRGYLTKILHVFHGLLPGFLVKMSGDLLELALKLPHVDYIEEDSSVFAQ
Procedure, shortened: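 20 nM biotin-avitag PCSK9 + 20 nM His-LDLR EGFa; 5 nM Ulight-SA / 5 nM Eu-anti-His; 2 h RT; HEPES 50 mM, NaCl 150 mM, CaCl2 5 mM, 0.01% BSA, 0.01% P20. Half-maximal inhibition, 4-parameter fit.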

PCSK9 [2] = biological target: T1, PCSK9 (Homo sapiens, UniProt Q8NBP7); test: PCSK9 Alexa FRET Standard assay (displacement of AlexaFluor647 tagged cyclic peptide Reagent A); details: 0.5 nM PCSK9, 20 nM AF cyclic peptide Reagent A
T1 sequence (Q8NBP7 153-692): as the sequence (Q8NBP7 153-692) above
Procedure, shortened: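 TR-FRET displacement: 0.5 nM biotinylated PCSK9 with 1.25 nM Strep-Eu and 20 nM AlexaFluor-tagged cyclic peptide (final) in 50 mM HEPES pH 7.4, 0.15 M NaCl, 5 mM CaCl2, 0.01% BSA, 0.01% P20, ≥2 h at room temperature. IC50 from sigmoidal fit, converted to Ki via peptide KD; falling Eu counts flagged false positives.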

PCSK9 [3] = biological target: T1, PCSK9; test: PCSK9 Alexa FRET Plus assay (displacement of AlexaFluor647 tagged cyclic peptide Reagent B); details: 0.5 nM PCSK9, 960 nM AF cyclic peptide Reagent B
Method: A solution containing 1 nM biotinylated PCSK9+2.5 nM Lance Streptavidin Europium (Strep-Eu) was made in 50 mM HEPES pH 7.4, 0.15 M NaCl, 5 mM CaCl2), 0.01% BSA, and 0.01% Surfactant P20. A separate solution containing 1920 nM of the AlexaFluor tagged cyclic peptide was made in the same buffer system. An Echo was used to transfer 0.075 ul of compound plus 0.675 ul of DMSO to each well of an assay plate followed by the addition of 15 ul of PCSK9+Stept-Eu and 15 ul of AF peptide. The final assay volume was 30.750 ul containing 0.5 nM PCSK9, 1.25 nM Strep-Eu, and 960 nM AF cyclic peptide. The reaction was incubated at room temperature for at least two hours prior to fluorescence measurements using an Envision Multilabel Reader. IC50 values were determined by fitting data to a sigmoidal dose-response curve using nonlinear regression. Ki was then calculated from the IC50 and the KD of AF cyclic peptide. Counts (B-counts) of the europium-labeled PCSK9 were followed to observe if compounds were adversely affecting PCSK9. A fall off of the B-counts likely indicated a false positive of inhibition. Data from this procedure was reported as “P=‘numerical value’ (nanomolar)”

Compound	IC50 [1]	IC50 (PCSK9 [2])	IC50 (PCSK9 [3])
CC(=O)N[C@H]1CSCc2cccc(c2)CSC[C@H](C(N)=O)NC(=O)[C@H]([C@@H](C)O)NC(=O)[C@](C)(C(C)C)NC(=O)[C@H](Cc2ccc(O)cc2)NC(=O)[C@H](C)NC(=O)C2(CCOCC2)NC(=O)[C@H](Cc2c[nH]c3ncccc23)NC(=O)[C@H]([C@@H](C)O)NC(=O)[C@@H]2CCCN2C(=O)[C@H](Cc2ccc(O)cc2)NC(=O)[C@H](C(C)(C)C)NC1=O [Compound 187] (Ac-C[Tle]YPT[Trp(7-aza)][Thp]AY[αMeV]T[dC]-NH2; linker 1-12 via mXylylene)	1 to 100 nM	1 to 100 nM	1 to 100 nM
CC(=O)N[C@H]1CSCc2cccc(c2)CSC[C@H](C(N)=O)NC(=O)[C@H]([C@@H](C)O)NC(=O)[C@](C)(C(C)C)NC(=O)[C@H](Cc2ccc(O)cc2)NC(=O)[C@H](C)NC(=O)[C@](C)(c2ccccc2)NC(=O)[C@H](Cc2c[nH]c3ncccc23)NC(=O)[C@H]([C@@H](C)O)NC(=O)[C@@H]2CCCN2C(=O)[C@H](Cc2ccc(O)cc2)NC(=O)[C@H](C(C)(C)C)NC1=O [Compound 190] (Ac-C[Tle]YPT[Trp(7-aza)][X1]AY[αMeV]T[dC]-NH2; linker 1-12 via mXylylene)	21000 to 50000 nM	1000 to 21000 nM	250 to 2000 nM
CCC[C@@H]1NC(=O)[C@H](Cc2c[nH]c3ccc(F)cc23)NC(=O)[C@H]([C@@H](C)O)NC(=O)[C@H](Cc2c[nH]cn2)NC(=O)[C@H](Cc2ccc(O)cc2)NC(=O)[C@H](C(C)(C)C)NC(=O)CCSCc2cccc(c2)CSC[C@@H](C(N)=O)NC(=O)[C@H]([C@@H](C)O)NC(=O)[C@H](CCC)NC(=O)[C@H](Cc2ccc(O)cc2)NC(=O)[C@H](CCC(=O)O)NC1=O [Compound 263] ([Mpa][Tle]YHT[Trp(5-F)][Nva]EY[Nva]TC-NH2; linker 1-12 via mXylylene)	100 to 1000 nM	1000 to 21000 nM	
CCC[C@@H]1NC(=O)[C@H](Cc2ccc(O)cc2)NC(=O)[C@H](CCC(=O)O)NC(=O)[C@H](CC2CC2)NC(=O)[C@H](Cc2c[nH]c3ncccc23)NC(=O)[C@H]([C@@H](C)O)NC(=O)[C@H](Cc2c[nH]cn2)NC(=O)[C@H](Cc2ccc(O)cc2)NC(=O)[C@H](C(C)(C)C)NC(=O)CCSCc2cccc(c2)CSC[C@@H](C(N)=O)NC(=O)[C@H]([C@@H](C)O)NC1=O [Compound 264] ([Mpa][Tle]YHT[Trp(7-aza)][Ala(cPr)]EY[Nva]TC-NH2; linker 1-12 via mXylylene)	100 to 1000 nM	1000 to 21000 nM	
CCC[C@@H]1NC(=O)[C@H](Cc2ccc(O)cc2)NC(=O)[C@H](CCC(=O)O)NC(=O)[C@H](Cc2ccc(F)cc2)NC(=O)[C@H](Cc2c[nH]c3ncccc23)NC(=O)[C@H]([C@@H](C)O)NC(=O)[C@H](Cc2c[nH]cn2)NC(=O)[C@H](Cc2ccc(O)cc2)NC(=O)[C@H](C(C)(C)C)NC(=O)CCSCc2cccc(c2)CSC[C@@H](C(N)=O)NC(=O)[C@H]([C@@H](C)O)NC1=O [Compound 265] ([Mpa][Tle]YHT[Trp(7-aza)][Phe(4-F)]EY[Nva]TC-NH2; linker 1-12 via mXylylene)	100 to 1000 nM	1000 to 21000 nM	
CCC[C@@H]1NC(=O)[C@H](Cc2ccc(O)cc2)NC(=O)[C@H](CCC(=O)O)NC(=O)[C@H](C2CCCCC2)NC(=O)[C@H](Cc2c[nH]c3ncccc23)NC(=O)[C@H]([C@@H](C)O)NC(=O)[C@H](Cc2c[nH]cn2)NC(=O)[C@H](Cc2ccc(O)cc2)NC(=O)[C@H](C(C)(C)C)NC(=O)CCSCc2cccc(c2)CSC[C@@H](C(N)=O)NC(=O)[C@H]([C@@H](C)O)NC1=O [Compound 273] ([Mpa][Tle]YHT[Trp(7-aza)][Chg]EY[Nva]TC-NH2; linker 1-12 via mXylylene)	100 to 1000 nM	100 to 1000 nM	
CCC[C@H](NC(C)=O)C(=O)N[C@H]1CSCc2cccc(c2)CSC[C@@H](C(N)=O)NC(=O)[C@H](Cc2c[nH]c3ccc(F)cc23)NC(=O)[C@@H]2C[C@H](F)CN2C(=O)[C@H](CCCNC(=N)N)NC(=O)CNC(=O)[C@H](CO)N(C)C(=O)[C@H](Cc2c[nH]c3ccc(F)cc23)NC(=O)[C@H](Cc2ccc(O)cc2)NC(=O)[C@H](C(C)(C)C)NC(=O)[C@H]([C@@H](C)CC)NC(=O)[C@H]([C@@H](C)O)NC1=O [Compound 337] (Ac-[Nva]CTI[Tle]Y[Trp(5-F)][NMeS]GR[Pro(cis-4-F)][Trp(5-F)]C-NH2; linker 2-13 via mXylylene)	1 to 100 nM	1 to 100 nM	
CC(=O)N[C@H]1CSCc2cccc(c2)CSC[C@H](C(N)=O)NC(=O)[C@H]([C@@H](C)O)NC(=O)[C@](C)(C(C)C)NC(=O)[C@H](Cc2ccc(O)cc2)NC(=O)[C@H](C)NC(=O)C2(CCC2)NC(=O)[C@H](Cc2c[nH]c3ncccc23)NC(=O)[C@H]([C@@H](C)O)NC(=O)[C@@H]2C[C@@H]3CN2C(=O)[C@H](Cc2ccc(O)cc2)NC(=O)[C@H](NC1=O)[C@H](C)OCCCCO3 [Compound 343] (Ac-C[dT]Y[Hyp]T[Trp(7-aza)][Ac4c]AY[αMeV]T[dC]-NH2; linker 1-12 via mXylylene; linker 2-4 via X4)	21000 to 50000 nM	1000 to 21000 nM	
CCC[C@@H]1NC(=O)[C@H](Cc2ccc(O)cc2)NC(=O)[C@H](C)NC(=O)[C@]2(C)CCC/C=C/CCC[C@](C)(NC1=O)C(=O)NCCCCCNC(=O)CCC[C@H](NC(C)=O)C(=O)N[C@@H](C(C)(C)C)C(=O)N[C@@H](Cc1ccc(O)cc1)C(=O)N1CCC[C@H]1C(=O)N[C@@H]([C@@H](C)O)C(=O)N[C@@H](Cc1cccc3ccccc13)C(=O)N2 [Compound 347] (Ac-[Aad][Tle]YPT[1Nal][S5]AY[Nva][S5]; linker 1-C via NH(CH2)5NH; staple (E) 7-11)	100 to 1000 nM	100 to 1000 nM	
CC(=O)N[C@H]1CCCCNC(=O)CCC[C@@H](C(N)=O)NC(=O)[C@H]([C@@H](C)O)NC(=O)[C@](C)(C(C)C)NC(=O)[C@H](Cc2ccc(O)cc2)NC(=O)[C@H](C)NC(=O)C(C)(C)NC(=O)[C@H](Cc2c[nH]c3ncccc23)NC(=O)[C@H]([C@@H](C)O)NC(=O)[C@@H]2C[C@@H]3CN2C(=O)[C@H](Cc2ccc(O)cc2)NC(=O)[C@@H](NC1=O)C(C)(C)SCc1ccc(cc1)CS3 [Compound 349] (Ac-K[Pen]Y[X3]T[Trp(7-aza)][Aib]AY[αMeV]T[Aad]-NH2; lactam 1-12; thioether 2-4)	1 to 100 nM	1 to 100 nM	
CC(=O)N[C@H]1CCCCNC(=O)CCC[C@@H](C(N)=O)NC(=O)[C@H]([C@@H](C)O)NC(=O)[C@](C)(C(C)C)NC(=O)[C@H](Cc2ccc(O)cc2)NC(=O)[C@H](C)NC(=O)C(C)(C)NC(=O)[C@H](Cc2c[nH]c3ncccc23)NC(=O)[C@H]([C@@H](C)O)NC(=O)[C@@H]2C[C@@H]3CN2C(=O)[C@H](Cc2ccc(O)cc2)NC(=O)[C@@H](NC1=O)C(C)(C)SC/C=C/CS3 [Compound 350] (Ac-K[Pen]Y[X2]T[Trp(7-aza)][Aib]AY[αMeV]T[Aad]-NH2; lactam 1-12; thioether 2-4)	100 to 1000 nM	100 to 1000 nM	
